Test results: patent publication US11781101B2, “3D-printed models of biological microenvironments” (Regents of the University of Minnesota, priority 2018, dated 2023)

System: HUVEC-lined conduit
Conditions: laser-triggered release of VEGF from capsules on one side of conduit
Text: To mimic the beginning of a metastatic cascade in the context of cell types relevant to the tumor microenvironment, a vascularized 3D-printed culture chamber was configured to provide spatiotemporal control over both tumor cell invasion and angiogenesis as illustrated in FIG. 28. The angiogenic mediator VEGF was introduced to promote and direct the formation of a vascular network from a pre-existing uniaxial conduit.

VEGF
endothelial sprouting from the conduit: numerous endothelial cells sprouted from the conduit
